Measured values as given in US20260356856A1, “KRAS G12S AND G12C INHIBITORS” (MIRATI THERAPEUTICS, INC., priority 2023, published 2026).

Legend:
KRas G12C = biological target: T1, KRas G12C (Homo sapiens, UniProt P01116, G12C); assay: KRas binding assay, TR-FRET displacement of Cy5 labelled tracer; conditions: 60-minute incubation at room temperature, 1% DMSO, pH 7.5
T1 construct: Biotinylated KRas (corresponding to amino acids 1-169, produced at Accelegan Inc.); biotin (biotinylated); purchased Accelegan Inc
T1 sequence (P01116 1-169 isoform P01116-2 G12C): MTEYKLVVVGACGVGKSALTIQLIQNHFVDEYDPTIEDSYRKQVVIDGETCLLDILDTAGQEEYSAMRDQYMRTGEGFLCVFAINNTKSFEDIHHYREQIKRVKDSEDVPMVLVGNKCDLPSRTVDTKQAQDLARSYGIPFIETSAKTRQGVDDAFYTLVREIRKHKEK
Procedure, shortened: (§1)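 Biotinylated KRas (residues 1-169) was incubated with tracer, terbium-streptavidin and compound at 1% DMSO final in 50 mM HEPES pH 7.5 containing 5 mM MgCl2, 0.005% Tween-20 and 1 mM DTT. The plate was read after 60 min at room temperature, and percent-of-control data were fit to a 4-parameter IC50 equation.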

KRas G12S = biological target: T2, KRas G12S (Homo sapiens, UniProt P01116, G12S); assay: as above; conditions: 60-minute incubation at room temperature, 1% DMSO, pH 7.5
T2 construct: Biotinylated KRas (corresponding to amino acids 1-169, produced at Accelegan Inc.); biotin (biotinylated); purchased Accelegan Inc
T2 sequence (P01116 1-169 isoform P01116-2 G12S): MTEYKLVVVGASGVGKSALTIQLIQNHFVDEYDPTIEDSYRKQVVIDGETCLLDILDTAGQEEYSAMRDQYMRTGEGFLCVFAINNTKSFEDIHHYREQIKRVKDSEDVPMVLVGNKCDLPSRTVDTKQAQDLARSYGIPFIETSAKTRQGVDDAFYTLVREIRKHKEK
Procedure, shortened: as §1

KRas WT = biological target: T3, KRas WT (Homo sapiens, UniProt P01116); assay: as above; conditions: 60-minute incubation at room temperature, 1% DMSO, pH 7.5
T3 construct: Biotinylated KRas (corresponding to amino acids 1-169, produced at Accelegan Inc.); biotin (biotinylated); purchased Accelegan Inc
T3 sequence (P01116 1-169 isoform P01116-2): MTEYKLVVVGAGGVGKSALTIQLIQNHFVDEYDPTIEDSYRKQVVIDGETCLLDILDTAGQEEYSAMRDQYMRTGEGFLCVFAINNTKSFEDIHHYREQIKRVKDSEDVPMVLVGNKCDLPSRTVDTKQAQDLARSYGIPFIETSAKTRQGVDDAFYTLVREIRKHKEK
Procedure, shortened: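 TR-FRET tracer-displacement readout after 60 min at room temperature, using KRas residues 1-169 (biotinylated) with terbium streptavidin and a Cy5 tracer. Buffer: 50 mM HEPES pH 7.5, 5 mM MgCl2, 0.005% Tween-20, 1 mM DTT, 1% DMSO final. IC50 from 4-parameter fit of POC data.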

[1] = biological target: T4, KRas-mediated phosphorylation of ERK in MKN1 cells (Homo sapiens, UniProt P01116); assay: Inhibition of KRas-mediated phosphorylation of ERK (HTRF), MKN1 cells; assay type: cell-based; conditions: MKN1 cells (KRas WT); HTRF pERK; 3 h incubation
T4 construct: pERK HTRF read-out
T4 sequence (P01116 1-188 isoform P01116-2): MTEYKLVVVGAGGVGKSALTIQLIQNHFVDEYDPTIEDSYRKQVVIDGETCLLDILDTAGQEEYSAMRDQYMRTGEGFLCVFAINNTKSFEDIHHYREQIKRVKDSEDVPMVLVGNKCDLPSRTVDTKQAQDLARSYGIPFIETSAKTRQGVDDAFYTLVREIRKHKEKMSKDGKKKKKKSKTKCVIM
Procedure: Inhibition of KRas Phosphorylation of ERK (HTRF) by Exemplary Compounds of Formula (Ia) or (Ib)
Cisbio HTRF Advanced pERK Assay Catalog #64AERPEH • Cells: MKN1, PSN1 • Procedure: • 1. Day 1: Seed 6,000 cells/well −25 μl/well in 384-well white solid bottom plate; RPM1_10% FBS. Incubate overnight at 37 °C/5% CO2. • 2.

[2] = biological target: T5, KRas-mediated phosphorylation of ERK in A549 cells (Homo sapiens, UniProt P01116, G12S); assay: Inhibition of KRas-mediated phosphorylation of ERK (HTRF), A549 cells; assay type: cell-based; conditions: HTRF pERK, 3 h incubation
T5 construct: pERK HTRF read-out
T5 sequence (P01116 1-188 isoform P01116-2 G12S): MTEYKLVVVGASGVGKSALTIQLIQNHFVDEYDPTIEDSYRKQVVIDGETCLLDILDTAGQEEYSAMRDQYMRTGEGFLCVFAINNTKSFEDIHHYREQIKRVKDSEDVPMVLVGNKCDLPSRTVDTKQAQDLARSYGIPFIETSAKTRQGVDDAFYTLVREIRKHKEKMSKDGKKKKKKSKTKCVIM

CCc1c(F)ccc2cc(O)cc(-c3ncc4c(NC[C@@H]5C[C@@H]5C(=O)n5ccc(C)n5)nc(OC[C@@]56CCCN5C[C@H](F)C6)nc4c3F)c12 [Example 103, ((1S,2R)-2-(((7-(8-ethyl-7-fluoro-3-hydroxynaphthalen-1-yl)-8-fluoro-2-(((2R,7aS)-2-fluorotetrahydro-1H-pyrrolizin-7a(5H)-yl)methoxy)pyrido[4,3-d]pyrimidin-4-yl)amino)methyl)cyclopropyl)(3-methyl-1H-pyrazol-1-yl)methanone]
IC50 (KRas G12C): 37 nM
IC50 (KRas G12S): 35 nM
IC50 (KRas WT): 34 nM
IC50 [1]: 351 nM
IC50 [2]: 167 nM

CCc1c(F)ccc2cc(O)cc(-c3ncc4c(N5CC6CCC(C(=O)n7ccc(C)n7)C6C5)nc(OC[C@@]56CCCN5C[C@H](F)C6)nc4c3F)c12 (stereo partly drawn) [Example 104, (2-(7-(8-ethyl-7-fluoro-3-hydroxynaphthalen-1-yl)-8-fluoro-2-(((2R,7aS)-2-fluorotetrahydro-1H-pyrrolizin-7a(5H)-yl)methoxy)pyrido[4,3-d]pyrimidin-4-yl)octahydrocyclopenta[c]pyrrol-4-yl)(3-methyl-1H-pyrazol-1-yl)methanone]
IC50 (KRas G12C): 295 nM
IC50 (KRas G12S): 176 nM
IC50 (KRas WT): 77 nM
IC50 [1]: 931 nM
IC50 [2]: 1580 nM

CCc1c(F)ccc2cc(O)cc(-c3ncc4c(N5C[C@H]6CC[C@@]6(C(=O)n6ccc(C)n6)C5)nc(OC[C@@]56CCCN5C[C@H](F)C6)nc4c3F)c12 [Example 105, ((1S,5S)-3-(7-(8-ethyl-7-fluoro-3-hydroxynaphthalen-1-yl)-8-fluoro-2-(((2R,7aS)-2-fluorotetrahydro-1H-pyrrolizin-7a(5H)-yl)methoxy)pyrido[4,3-d]pyrimidin-4-yl)-3-azabicyclo[3.2.0]heptan-1-yl)(3-methyl-1H-pyrazol-1-yl)methanone]
IC50 (KRas G12C): 35 nM
IC50 (KRas G12S): 50 nM
IC50 (KRas WT): 58 nM
IC50 [1]: 517 nM
IC50 [2]: > 10000 nM

CCc1c(F)ccc2cc(O)cc(-c3ncc4c(N5CC6CCC(C(=O)n7ccc(C)n7)(C6)C5)nc(OC[C@@]56CCCN5C[C@H](F)C6)nc4c3F)c12 (stereo partly drawn) [Example 106, (3-(7-(8-ethyl-7-fluoro-3-hydroxynaphthalen-1-yl)-8-fluoro-2-(((2R,7aS)-2-fluorotetrahydro-1H-pyrrolizin-7a(5H)-yl)methoxy)pyrido[4,3-d]pyrimidin-4-yl)-3-azabicyclo[3.2.1]octan-1-yl)(3-methyl-1H-pyrazol-1-yl)methanone]
IC50 (KRas G12C): 22 nM
IC50 (KRas G12S): 14 nM
IC50 (KRas WT): 40 nM
IC50 [1]: 529 nM
IC50 [2]: 584 nM

C=CC1(C(=O)n2ccc(C)n2)CCN(c2nc(OC[C@@]34CCCN3C[C@H](F)C4)nc3c(F)c(-c4cc(O)cc5ccc(F)c(CC)c45)ncc23)C1 (stereo partly drawn) [Example 107, (1-(7-(8-ethyl-7-fluoro-3-hydroxynaphthalen-1-yl)-8-fluoro-2-(((2R,7aS)-2-fluorotetrahydro-1H-pyrrolizin-7a(5H)-yl)methoxy)pyrido[4,3-d]pyrimidin-4-yl)-3-vinylpyrrolidin-3-yl)(3-methyl-1H-pyrazol-1-yl)methanone]
IC50 (KRas G12C): 37 nM
IC50 (KRas G12S): 513 nM
IC50 (KRas WT): 1060 nM
IC50 [1]: > 10000 nM
IC50 [2]: 2070 nM

C#CCC1(C(=O)n2ccc(C)n2)CCN(c2nc(OC[C@@]34CCCN3C[C@H](F)C4)nc3c(F)c(-c4cc(O)cc5ccc(F)c(CC)c45)ncc23)C1 (stereo partly drawn) [Example 108, (1-(7-(8-ethyl-7-fluoro-3-hydroxynaphthalen-1-yl)-8-fluoro-2-(((2R,7aS)-2-fluorotetrahydro-1H-pyrrolizin-7a(5H)-yl)methoxy)pyrido[4,3-d]pyrimidin-4-yl)-3-(prop-2-yn-1-yl)pyrrolidin-3-yl)(3-methyl-1H-pyrazol-1-yl)methanone]
IC50 (KRas G12C): 339 nM
IC50 (KRas G12S): 1320 nM
IC50 (KRas WT): 1040 nM
IC50 [1]: > 10000 nM
IC50 [2]: 2000 nM

CCc1c(F)ccc2cc(O)cc(-c3ncc4c(NC[C@@H]5[C@H](C(=O)n6ccc(C)n6)C5(C)C)nc(OC[C@@]56CCCN5C[C@H](F)C6)nc4c3F)c12 [Example 109, ((1S,3R)-3-(((7-(8-ethyl-7-fluoro-3-hydroxynaphthalen-1-yl)-8-fluoro-2-(((2R,7aS)-2-fluorotetrahydro-1H-pyrrolizin-7a(5H)-yl)methoxy)pyrido[4,3-d]pyrimidin-4-yl)amino)methyl)-2,2-dimethylcyclopropyl)(3-methyl-1H-pyrazol-1-yl)methanone]
IC50 (KRas G12C): 134 nM
IC50 (KRas G12S): 99 nM
IC50 (KRas WT): 73 nM
IC50 [1]: 316 nM
IC50 [2]: 1920 nM

CCc1c(F)ccc2cc(O)cc(-c3ncc4c(NCCCC(=O)n5ccc(C)n5)nc(OC[C@@]56CCCN5C[C@H](F)C6)nc4c3F)c12 [Example 111, 4-((7-(8-ethyl-7-fluoro-3-hydroxynaphthalen-1-yl)-8-fluoro-2-(((2R,7aS)-2-fluorotetrahydro-1H-pyrrolizin-7a(5H)-yl)methoxy)pyrido[4,3-d]pyrimidin-4-yl)amino)-1-(3-methyl-1H-pyrazol-1-yl) butan-1-one]
IC50 (KRas G12C): < 2 nM
IC50 (KRas G12S): 3 nM
IC50 (KRas WT): 13 nM
IC50 [1]: 219 nM
IC50 [2]: 16 nM

CCc1c(F)ccc2cc(O)cc(-c3ncc4c(NC[C@@H]5C[C@H]5C(=O)n5ccc(C)n5)nc(OC[C@@]56CCCN5C[C@H](F)C6)nc4c3F)c12 [Example 112, ((1R,2R)-2-(((7-(8-ethyl-7-fluoro-3-hydroxynaphthalen-1-yl)-8-fluoro-2-(((2R,7aS)-2-fluorotetrahydro-1H-pyrrolizin-7a(5H)-yl)methoxy)pyrido[4,3-d]pyrimidin-4-yl)amino)methyl)cyclopropyl)(3-methyl-1H-pyrazol-1-yl)methanone]
IC50 (KRas G12C): 11 nM
IC50 (KRas G12S): 9 nM
IC50 (KRas WT): 19 nM
IC50 [1]: 80 nM
IC50 [2]: 15 nM

CCc1c(F)ccc2cc(O)cc(-c3ncc4c(N5CCC(CC(=O)n6ccc(C)n6)C5)nc(OC[C@@]56CCCN5C[C@H](F)C6)nc4c3F)c12 (stereo partly drawn) [Example 113, 2-(1-(7-(8-ethyl-7-fluoro-3-hydroxynaphthalen-1-yl)-8-fluoro-2-(((2R,7aS)-2-fluorotetrahydro-1H-pyrrolizin-7a(5H)-yl)methoxy)pyrido[4,3-d]pyrimidin-4-yl)pyrrolidin-3-yl)-1-(3-methyl-1H-pyrazol-1-yl) ethan-1-one]
IC50 (KRas G12C): 137 nM
IC50 (KRas G12S): 31 nM
IC50 (KRas WT): 78 nM
IC50 [1]: 3150 nM
IC50 [2]: 110 nM

CCc1c(F)ccc2cc(O)cc(-c3ncc4c(N5C[C@@H]6[C@H](C5)[C@@H]6C(=O)n5ccc(C)n5)nc(OC[C@@]56CCCN5C[C@H](F)C6)nc4c3F)c12 [Example 114, ((1R,5S,6R)-3-(7-(8-ethyl-7-fluoro-3-hydroxynaphthalen-1-yl)-8-fluoro-2-(((2R,7aS)-2-fluorotetrahydro-1H-pyrrolizin-7a(5H)-yl)methoxy)pyrido[4,3-d]pyrimidin-4-yl)-3-azabicyclo[3.1.0]hexan-6-yl)(3-methyl-1H-pyrazol-1-yl)methanone]
IC50 (KRas G12C): 776 nM
IC50 (KRas G12S): 664 nM
IC50 (KRas WT): 1180 nM
IC50 [1]: 7830 nM
IC50 [2]: > 10000 nM
